{"source": "patent US20070099259A1", "about": "“ELECTROCHEMICAL ASSAY FOR THE IDENTIFICATION OF MICROORGANISMS” (RAPID LABORATORY MICROSYSTEMS INC., priority 2003, published 2007)", "assay_in_all_cases": "Relative respiratory activity with 22 effectors (Example 3)", "key": {"E. aerogenes ATCC13048e": {"system": "E. aerogenes ATCC13048e", "assay_type": "cell-based, Enterobacter aerogenes", "settings": "5 μM DCIP, no effector = 100%, n = 26; for activity at 20000 µM: effector 20 mM", "from_the_text": "(§1) In this example, each microorganism is subjected to 22 different effector compounds in addition to control measurements. […] For each microorganism, duplicate measurements were made of 22 different effector compounds. In addition, duplicate measurements were made a control test containing no effector compound. One additional measurement was made of a control solution containing the microorganism with ferricyanide but without effector or DCIP.\n(§2) In this example, each normalized data set containing duplicate measurements for each of 22 effector compounds is referenced to the duplicate internal controls to allow batch-to-batch comparison. The obtained signals of charge per unit electrode area for the duplicate control measurements are averaged and set at 100% respiratory cycle activity. […] The data set used to generate pattern recognition plots consists of 5 replicate batches (each batch containing duplicate measurements for each of 22 effector compounds) for each cell culture (10 strains). This is used to generate a 50 (columns)×22 (rows) matrix. The matrix is imported into MATLAB (Version 6.0). Factor analysis is performed using the MATLAB Chemometric Toolbox (Version 2.3) and involves the generation of reduced eigenvectors to determine the optimal number of factors, examination of the resulting residuals plots for randomness, and the generation of scores for the first four principle components."}, "P. vulgaris ATCC6380": {"system": "P. vulgaris ATCC6380", "assay_type": "cell-based, Proteus vulgaris", "settings": "5 μM DCIP, no effector = 100%, n = 20; for activity at 20000 µM: effector 20 mM", "from_the_text": "as §1, §2"}, "E. coli B": {"system": "E. coli B", "assay_type": "cell-based", "settings": "5 μM DCIP, no effector = 100%, n = 10; for activity at 20000 µM: effector 20 mM", "from_the_text": "as §1, §2"}, "E. coli Neotype": {"system": "E. coli Neotype", "assay_type": "cell-based", "settings": "5 μM DCIP, no effector = 100%, n = 26; for activity at 20000 µM: effector 20 mM", "from_the_text": "as §1, §2"}, "E. coli JM105": {"system": "E. coli JM105", "assay_type": "cell-based", "settings": "5 μM DCIP, no effector = 100%, n = 10; for activity at 20000 µM: effector 20 mM", "from_the_text": "as §1, §2"}, "E. coli HB101": {"system": "E. coli HB101", "assay_type": "cell-based", "settings": "5 μM DCIP, no effector = 100%, n = 18; for activity at 20000 µM: effector 20 mM", "from_the_text": "as §1, §2"}, "S. aureus ATCC6538P": {"system": "S. aureus ATCC6538P", "assay_type": "cell-based, Staphylococcus aureus", "settings": "5 μM DCIP, no effector = 100%, n = 20; for activity at 20000 µM: effector 20 mM", "from_the_text": "as §1, §2"}, "P. aeruginosa": {"system": "P. aeruginosa", "assay_type": "cell-based, Pseudomonas aeruginosa", "settings": "5 μM DCIP, no effector = 100%, n = 18; for activity at 20000 µM: effector 20 mM", "from_the_text": "as §1, §2"}, "S. cerevisiae": {"system": "S. cerevisiae", "assay_type": "cell-based, Saccharomyces cerevisiae", "settings": "5 μM DCIP, no effector = 100%, n = 10; for activity at 20000 µM: effector 20 mM", "from_the_text": "as §1, §2"}, "E. faecalis": {"system": "E. faecalis", "assay_type": "cell-based, Enterococcus faecalis", "settings": "5 μM DCIP, no effector = 100%, n = 20; for activity at 20000 µM: effector 20 mM", "from_the_text": "as §1, §2"}, "[1]": {"settings": "Escherichia coli, effector 10 mM, read-out: relative %-respiratory activity"}, "[2]": {"settings": "Klebsiella aerogenes, ATCC13048E"}, "[3]": {"settings": "Staphylococcus aureus, ATCC6538P"}}}
{"compound": "O=C(O)CCC(=O)C(=O)O", "note": "[Alpha-ketoglutarate]", "values": [{"measurement": "relative %-respiratory activity", "setting": "E. aerogenes ATCC13048e; effector 10 mM", "result": 102, "unit": "%"}, {"measurement": "relative %-respiratory activity", "setting": "P. vulgaris ATCC6380; effector 10 mM", "result": 201, "unit": "%"}, {"measurement": "relative %-respiratory activity", "setting": "E. coli B; effector 10 mM", "result": 130, "unit": "%"}, {"measurement": "relative %-respiratory activity", "setting": "E. coli Neotype; effector 10 mM", "result": 100, "unit": "%"}, {"measurement": "relative %-respiratory activity", "setting": "E. coli JM105; effector 10 mM", "result": 142, "unit": "%"}, {"measurement": "relative %-respiratory activity", "setting": "E. coli HB101; effector 10 mM", "result": 116, "unit": "%"}, {"measurement": "relative %-respiratory activity", "setting": "S. aureus ATCC6538P; effector 10 mM", "result": 115, "unit": "%"}, {"measurement": "relative %-respiratory activity", "setting": "P. aeruginosa; effector 10 mM", "result": 97, "unit": "%"}, {"measurement": "relative %-respiratory activity", "setting": "S. cerevisiae; effector 10 mM", "result": 124, "unit": "%"}, {"measurement": "relative %-respiratory activity", "setting": "E. faecalis; effector 10 mM", "result": 109, "unit": "%"}]}
{"compound": "OC[C@H]1O[C@@H]2O[C@H]3[C@H](O)[C@@H](O)[C@@H](O[C@H]4[C@H](O)[C@@H](O)[C@@H](O[C@H]5[C@H](O)[C@@H](O)[C@@H](O[C@H]6[C@H](O)[C@@H](O)[C@@H](O[C@H]7[C@H](O)[C@@H](O)[C@@H](O[C@H]8[C@H](O)[C@@H](O)[C@@H](O[C@H]1[C@H](O)[C@H]2O)O[C@@H]8CO)O[C@@H]7CO)O[C@@H]6CO)O[C@@H]5CO)O[C@@H]4CO)O[C@@H]3CO", "note": "[Beta-cyclodextrin]", "values": [{"measurement": "activity at 10000 µM", "setting": "E. aerogenes ATCC13048e; Klebsiella aerogenes, ATCC13048E, effector 10 mM, read-out: relative %-respiratory activity", "result": 110, "unit": "%"}, {"measurement": "activity at 10000 µM", "setting": "P. vulgaris ATCC6380; Proteus vulgaris, ATCC6380, effector 10 mM, read-out: relative %-respiratory activity", "result": 151, "unit": "%"}, {"measurement": "activity at 10000 µM", "setting": "E. coli B; [1]", "result": 125, "unit": "%"}, {"measurement": "activity at 10000 µM", "setting": "E. coli Neotype; [1]", "result": 81, "unit": "%"}, {"measurement": "activity at 10000 µM", "setting": "E. coli JM105; Escherichia coli, JM105, effector 10 mM, read-out: relative %-respiratory activity", "result": 187, "unit": "%"}, {"measurement": "activity at 10000 µM", "setting": "E. coli HB101; Escherichia coli, HB101, effector 10 mM, read-out: relative %-respiratory activity", "result": 132, "unit": "%"}, {"measurement": "activity at 10000 µM", "setting": "S. aureus ATCC6538P; Staphylococcus aureus, ATCC6538P, effector 10 mM, read-out: relative %-respiratory activity", "result": 98, "unit": "%"}, {"measurement": "activity at 10000 µM", "setting": "P. aeruginosa; Pseudomonas aeruginosa, effector 10 mM, read-out: relative %-respiratory activity", "result": 90, "unit": "%"}, {"measurement": "activity at 10000 µM", "setting": "S. cerevisiae; Saccharomyces cerevisiae, effector 10 mM, read-out: relative %-respiratory activity", "result": 112, "unit": "%"}, {"measurement": "activity at 10000 µM", "setting": "E. faecalis; Enterococcus faecalis, effector 10 mM, read-out: relative %-respiratory activity", "result": 155, "unit": "%"}]}
{"compound": "O=P(O)(O)OC(CO)CO", "note": "[Beta-glycerophosphate]", "values": [{"measurement": "relative %-respiratory activity", "setting": "E. aerogenes ATCC13048e; effector 10 mM", "result": 131, "unit": "%"}, {"measurement": "relative %-respiratory activity", "setting": "P. vulgaris ATCC6380; effector 10 mM", "result": 136, "unit": "%"}, {"measurement": "relative %-respiratory activity", "setting": "E. coli Neotype; effector 10 mM", "result": 108, "unit": "%"}, {"measurement": "relative %-respiratory activity", "setting": "E. coli JM105; effector 10 mM", "result": 121, "unit": "%"}, {"measurement": "relative %-respiratory activity", "setting": "E. coli HB101; effector 10 mM", "result": 110, "unit": "%"}, {"measurement": "relative %-respiratory activity", "setting": "S. aureus ATCC6538P; effector 10 mM", "result": 114, "unit": "%"}, {"measurement": "relative %-respiratory activity", "setting": "P. aeruginosa; effector 10 mM", "result": 114, "unit": "%"}, {"measurement": "relative %-respiratory activity", "setting": "S. cerevisiae; effector 10 mM", "result": 105, "unit": "%"}, {"measurement": "relative %-respiratory activity", "setting": "E. faecalis; effector 10 mM", "result": 120, "unit": "%"}]}
{"compound": "O=C(O)CC(O)(CC(=O)O)C(=O)O", "note": "[Citric acid]", "values": [{"measurement": "activity at 20000 µM", "setting": "E. aerogenes ATCC13048e; [2]", "result": 163, "unit": "%"}, {"measurement": "activity at 20000 µM", "setting": "P. vulgaris ATCC6380; Proteus vulgaris, ATCC6380", "result": 142, "unit": "%"}, {"measurement": "activity at 20000 µM", "setting": "E. coli B; Escherichia coli", "result": 161, "unit": "%"}, {"measurement": "activity at 20000 µM", "setting": "E. coli Neotype; Escherichia coli", "result": 158, "unit": "%"}, {"measurement": "activity at 20000 µM", "setting": "E. coli JM105; Escherichia coli, JM105", "result": 113, "unit": "%"}, {"measurement": "activity at 20000 µM", "setting": "E. coli HB101; Escherichia coli, HB101", "result": 137, "unit": "%"}, {"measurement": "activity at 20000 µM", "setting": "S. aureus ATCC6538P; [3]", "result": 83, "unit": "%"}, {"measurement": "activity at 20000 µM", "setting": "P. aeruginosa; Pseudomonas aeruginosa", "result": 87, "unit": "%"}, {"measurement": "activity at 20000 µM", "setting": "S. cerevisiae; Saccharomyces cerevisiae", "result": 103, "unit": "%"}, {"measurement": "activity at 20000 µM", "setting": "E. faecalis; Enterococcus faecalis", "result": 117, "unit": "%"}]}
{"compound": "O=C[C@@H](O)[C@H](O)[C@H](O)CO", "note": "[D-arabinose]", "values": [{"measurement": "activity at 20000 µM", "setting": "E. aerogenes ATCC13048e; [2]", "result": 106, "unit": "%"}, {"measurement": "activity at 20000 µM", "setting": "P. vulgaris ATCC6380; Proteus vulgaris, ATCC6380", "result": 150, "unit": "%"}, {"measurement": "activity at 20000 µM", "setting": "E. coli B; Escherichia coli", "result": 118, "unit": "%"}, {"measurement": "activity at 20000 µM", "setting": "E. coli Neotype; Escherichia coli", "result": 103, "unit": "%"}, {"measurement": "activity at 20000 µM", "setting": "E. coli JM105; Escherichia coli, JM105", "result": 137, "unit": "%"}, {"measurement": "activity at 20000 µM", "setting": "E. coli HB101; Escherichia coli, HB101", "result": 107, "unit": "%"}, {"measurement": "activity at 20000 µM", "setting": "S. aureus ATCC6538P; [3]", "result": 115, "unit": "%"}, {"measurement": "activity at 20000 µM", "setting": "P. aeruginosa; Pseudomonas aeruginosa", "result": 113, "unit": "%"}, {"measurement": "activity at 20000 µM", "setting": "S. cerevisiae; Saccharomyces cerevisiae", "result": 143, "unit": "%"}, {"measurement": "activity at 20000 µM", "setting": "E. faecalis; Enterococcus faecalis", "result": 139, "unit": "%"}]}
{"compound": "O=C(CO)[C@@H](O)[C@H](O)[C@H](O)CO", "note": "[D-fructose]", "values": [{"measurement": "activity at 20000 µM", "setting": "E. aerogenes ATCC13048e; [2]", "result": 275, "unit": "%"}, {"measurement": "activity at 20000 µM", "setting": "P. vulgaris ATCC6380; Proteus vulgaris, ATCC6380", "result": 183, "unit": "%"}, {"measurement": "activity at 20000 µM", "setting": "E. coli B; Escherichia coli", "result": 147, "unit": "%"}, {"measurement": "activity at 20000 µM", "setting": "E. coli Neotype; Escherichia coli", "result": 125, "unit": "%"}, {"measurement": "activity at 20000 µM", "setting": "E. coli JM105; Escherichia coli, JM105", "result": 202, "unit": "%"}, {"measurement": "activity at 20000 µM", "setting": "E. coli HB101; Escherichia coli, HB101", "result": 202, "unit": "%"}, {"measurement": "activity at 20000 µM", "setting": "S. aureus ATCC6538P; [3]", "result": 289, "unit": "%"}, {"measurement": "activity at 20000 µM", "setting": "P. aeruginosa; Pseudomonas aeruginosa", "result": 136, "unit": "%"}, {"measurement": "activity at 20000 µM", "setting": "S. cerevisiae; Saccharomyces cerevisiae", "result": 152, "unit": "%"}, {"measurement": "activity at 20000 µM", "setting": "E. faecalis; Enterococcus faecalis", "result": 463, "unit": "%"}]}
